“Also recorded” adds a separate entry of the source. Marks after values point to notes of the source that are not given here.
How the values were obtained:
[1] = Long term stability: oxidation (6% H2O2) at 60° C.; type: physicochemical; conditions: 6% H2O2, 60° C., up to 14 days
Protocol: (§1) Osanetant p-toluenesulfonic acid Form 1 and osanetant benzenesulfonic acid Form 1 were tested for long-term stability across a number of different conditions, as detailed below.
(§2) Oxidation at 60° C.—Osanetant p-toluenesulfonic acid Form 1 and osanetant benzenesulfonic acid Form 1 were prepared at an osanetant content 10 times the normal working concentration then added to HPLC vials containing 6% H2O2 and stored in a darkened oven at 60° C. Samples were diluted to 2 mg/mL for analysis and were taken after T=1, 2, 4, 7, and 14 days storage. […] The purity of the resulting material is described in Table 47: […]

[2] = Long term stability: thermal stability of solids at 60° C.; type: physicochemical; conditions: solids, darkened oven at 60° C., up to 14 days
Protocol: as §1
Thermal stability of solids at 60° C.—Osanetant p-toluenesulfonic acid Form 1 and osanetant benzenesulfonic acid Form 1 were stored in a darkened oven at 60° C. in glass vials. Samples were taken after T=1, 2, 4, 7, and 14 days storage. […] The purity of the resulting material is described in Table 41: […]

[3] = Long term stability: base (2M NaOH) at 60° C.; type: physicochemical; conditions: 2M NaOH, 60° C., up to 14 days
Protocol: as §1
as §2, with “Base” for “Oxidation”, “2M NaOH” for “6% H2O2”, “45:” for “47:”

[4] = Salt screen: XRPD of isolated solids after drying at 40° C. and at 40° C./75% RH; type: physicochemical; conditions: for XRPD after drying at 40° C./75% RH: after 40° C. drying, dried at 40° C./75% RH for about 24 h, label = form after 40° C. drying; for XRPD after drying at 40° C.: isolated solids dried at 40° C. for about 24 h, label = wet form
Protocol: To approximately 20 mg of amorphous lyophilized osanetant was added 0.3 mL of solvent for liquid counterion experiments. 0.2 mL of solvent was employed for solid counterion experiments. […] To the stirring mixture was then added 1.05 mol eq. of the appropriate counterion. Where solid counterions were used, the vial which contained the counterion was washed in to the osanetant containing vial with 0.1 mL of the appropriate solvent. Additional solvent was added where necessary. The experiments were thermally cycled as follows: heated from 25 to 40° C. at a rate of 0.1° C./min; 1 h at 40° C.; Cool to 5° C. at a rate of 0.1° C.; 1 h at 5° C.; 40° C. at a rate of 0.1° C./min; […] The crystallization experiments were thermally cycled overnight, then slurries were isolated by centrifugation. XRPD analysis was carried out on any isolated solids or gums. The XRPD plate, and the isolated solids, were then dried at 40° C. for about 24 h, and XRPD analysis was repeated. The XRPD plate was then dried at 40° C./75% RH for about 24 h and XRPD analysis was again repeated. All other samples were allowed to evaporated at ambient temperature and pressure.

[5] = Long term stability: oxidation (6% H2O2) at ambient temperature; type: physicochemical; conditions: 6% H2O2, dark, ambient, up to 14 days
Protocol: as §1
as §2, with “Ambient Temperature-Osanetant” for “60° C.—Osanetant”, “the dark” for “a darkened oven”, “ambient laboratory conditions.” for “60° C.”, “46:” for “47:”

[6] = Long term stability: base (2M NaOH) at ambient temperature; type: physicochemical; conditions: 2M NaOH, dark, ambient, up to 14 days
Protocol: as §1
as §2, with “Base” for “Oxidation”, “Ambient Temperature—Osanetant” for “60° C.—Osanetant”, “2M NaOH” for “6% H2O2”, “the dark” for “a darkened oven”, “ambient laboratory conditions.” for “60° C.”, “44:” for “47:”

[7] = Long term stability: acid stability (2M HCl) at ambient temperature; type: physicochemical; conditions: 2M HCl, dark, ambient, up to 14 days
Protocol: as §1
as §2, with “Acid Stability” for “Oxidation”, “Ambient Temperature-Osanetant” for “60° C.—Osanetant”, “2M HCl” for “6% H2O2”, “the dark” for “a darkened oven”, “ambient laboratory conditions.” for “60° C.”, “42:” for “47:”

[8] = Solid form stability observations (scale up / polymorph work: drying, ambient conditions, aqueous media); type: physicochemical; conditions: ambient conditions / room temperature and pressure
Protocol: Two anhydrous forms of the osanetant p-toluenesulfonic acid were synthesized. […] Form 6, described below, was a stable anhydrous form, but hydrated in water and aqueous solvent mixtures.
Advantageously, Form 1 (hydrate) and Form 6 (anhydrous) were stable on drying. Form 1 re-hydrated at room temperature and pressure after KF analysis, when it was heated in an oven to remove the water.
The experiment was cooled to 5° C. at a rate of 0.1° C./min and stirred at 5° C. for 18 h. The slurry was isolated be Buchner filtration: 42.5 mm Ø grade 1 Whatman filter paper; fast Filtration (<30 s); the cake was washed with 1 mL of ethyl acetate; the isolated solids were dried at 40° C. under vacuum for 72 h. […]

[9] = Thermodynamic solubility in water and pH buffers; conditions: for Concentration: 24 h Solubility at 37° C.
[10] = Comparative studies: 7-day stability; type: physicochemical; conditions: for HPLC Impurity Content: 7 Day Stability
Protocol: Osanetant p-toluenesulfonic acid Form 1, osanetant benzene sulfonic acid Form 3, osanetant naphthalene-2-sulfonic acid Form 3, and osanetant phosphoric acid Form 7 were compared. Osanetant phosphoric acid Form 7 was obtained when preparation of osanetant phosphoric acid Form 4 was repeated and found to be not reproducible, and Form 7 was determined to be a mixture of hydrates).
Thus, osanetant benzene sulfonic acid salt Form 1 and osanetant p-toluene sulfonic acid salt Form 1 were identified as advantageous salts.

Molecule: CC(=O)N(C)C1(c2ccccc2)CCN(CCC[C@]2(c3ccc(Cl)c(Cl)c3)CCCN(C(=O)c3ccccc3)C2)CC1.O=S(=O)(O)c1ccccc1 [osanetant benzenesulfonic acid Form 1, (R)-N-(1-(3-(1-benzoyl-3-(3,4-dichlorophenyl)piperidin-3-yl)propyl)-4-phenylpiperidin-4-yl)-N-methylacetamide benzenesulfonic acid]
- degradation on storage (purity) [1]: lack of degradation
- degradation on storage (purity) [2]: lack of degradation
- degradation on storage (purity) [3]: lack of degradation
- XRPD after drying at 40° C./75% RH [4]: retained; also recorded: stable; also recorded: Form 1
- XRPD after drying at 40° C. [4]: Form 1
- degradation on storage (purity) [5]: lack of degradation
- degradation on storage (purity) [6]: lack of degradation
- degradation on storage (purity) [7]: lack of degradation

Molecule: CC(=O)N(C)C1(c2ccccc2)CCN(CCC[C@]2(c3ccc(Cl)c(Cl)c3)CCCN(C(=O)c3ccccc3)C2)CC1.Cc1ccc(S(=O)(=O)O)cc1 [osanetant p-toluenesulfonic acid Form 5]
- form stability / re-hydration under ambient conditions [8]: rehydrates to Form 1; also recorded: re-hydrated to Form 1; also recorded: hydrated at ambient conditions to Form 1

Molecule: CC(=O)N(C)C1(c2ccccc2)CCN(CCC[C@]2(c3ccc(Cl)c(Cl)c3)CCCN(C(=O)c3ccccc3)C2)CC1.O=P(O)(O)O [osanetant phosphoric acid Form 2, (R)-N-(1-(3-(1-benzoyl-3-(3,4-dichlorophenyl)piperidin-3-yl)propyl)-4-phenylpiperidin-4-yl)-N-methylacetamide phosphoric acid]
- XRPD after drying at 40° C./75% RH [4]: converted to Pattern 4; also recorded: Form 4*
- XRPD after drying at 40° C. [4]: Form 2

Molecule: CC(=O)N(C)C1(c2ccccc2)CCN(CCC[C@]2(c3ccc(Cl)c(Cl)c3)CCCN(C(=O)c3ccccc3)C2)CC1.O=P(O)(O)O [osanetant phosphoric acid Form 3, (R)-N-(1-(3-(1-benzoyl-3-(3,4-dichlorophenyl)piperidin-3-yl)propyl)-4-phenylpiperidin-4-yl)-N-methylacetamide phosphoric acid]
- XRPD after drying at 40° C./75% RH [4]: retained; also recorded: stable; also recorded: Form 3
- XRPD after drying at 40° C. [4]: Form 3

Molecule: CC(=O)N(C)C1(c2ccccc2)CCN(CCC[C@]2(c3ccc(Cl)c(Cl)c3)CCCN(C(=O)c3ccccc3)C2)CC1.O=P(O)(O)O [osanetant phosphoric acid Form 4, (R)-N-(1-(3-(1-benzoyl-3-(3,4-dichlorophenyl)piperidin-3-yl)propyl)-4-phenylpiperidin-4-yl)-N-methylacetamide phosphoric acid]
- XRPD after drying at 40° C./75% RH [4]: stable

Molecule: CC(=O)N(C)C1(c2ccccc2)CCN(CCC[C@]2(c3ccc(Cl)c(Cl)c3)CCCN(C(=O)c3ccccc3)C2)CC1.O=P(O)(O)O [osanetant phosphoric acid Form 7]
- disproportionation in buffer ([9]; pH 6.8 buffer): Disproportionation was observed
- solid chemical stability ([10]; 7-day stability results, overall): Good and best chemical stability
- solid form on 7-day stability ([10]; 7 days, elevated temperature where stated): loss in crystallinity at elevated temperature

Molecule: CC(=O)N(C)C1(c2ccccc2)CCN(CCC[C@]2(c3ccc(Cl)c(Cl)c3)CCCN(C(=O)c3ccccc3)C2)CC1.O=S(=O)(O)O [osanetant sulfuric acid Form 1, (R)-N-(1-(3-(1-benzoyl-3-(3,4-dichlorophenyl)piperidin-3-yl)propyl)-4-phenylpiperidin-4-yl)-N-methylacetamide sulfuric acid]
- XRPD after drying at 40° C. [4]: Form 2

Molecule: CC(=O)N(C)C1(c2ccccc2)CCN(CCC[C@]2(c3ccc(Cl)c(Cl)c3)CCCN(C(=O)c3ccccc3)C2)CC1.O=S(=O)(O)O [osanetant sulfuric acid Form 2, (R)-N-(1-(3-(1-benzoyl-3-(3,4-dichlorophenyl)piperidin-3-yl)propyl)-4-phenylpiperidin-4-yl)-N-methylacetamide sulfuric acid]
- XRPD after drying at 40° C./75% RH [4]: Form 3*

Molecule: CC(=O)N(C)C1(c2ccccc2)CCN(CCC[C@]2(c3ccc(Cl)c(Cl)c3)CCCN(C(=O)c3ccccc3)C2)CC1.Cc1ccc(S(=O)(=O)O)cc1 [pTSA Form 6]
- Concentration ([9]; pH 1.2): 45800 ng/mL
- Concentration ([9]; pH 4.5): 63000 ng/mL
- Concentration ([9]; pH 6.8): 35600 ng/mL
- HPLC Impurity Content ([10]; 40° C./75% RH): 0.11 % w/w
- HPLC Impurity Content ([10]; 80° C.): 0.88 % w/w
- HPLC Impurity Content ([10]; Ambient Light): 0.11 % w/w

Molecule: (R)-N-(1-(3-(1-benzoyl-3-(3,4-dichlorophenyl)piperidin-3-yl)propyl)-4-phenylpiperidin-4-yl)-N-methylacetamide naphthalene-2-sulfonic acid [osanetant naphthalene-2-sulfonic acid Form 1]
- XRPD after drying at 40° C./75% RH [4]: retained; also recorded: stable; also recorded: Form 1
- XRPD after drying at 40° C. [4]: retained; also recorded: Form 1

Molecule: (R)-N-(1-(3-(1-benzoyl-3-(3,4-dichlorophenyl)piperidin-3-yl)propyl)-4-phenylpiperidin-4-yl)-N-methylacetamide naphthalene-2-sulfonic acid [osanetant naphthalene-2-sulfonic acid Form 2]
- XRPD after drying at 40° C./75% RH [4]: retained; also recorded: stable; also recorded: Form 2*
- XRPD after drying at 40° C. [4]: retained; also recorded: Form 2*

Molecule: (R)-N-(1-(3-(1-benzoyl-3-(3,4-dichlorophenyl)piperidin-3-yl)propyl)-4-phenylpiperidin-4-yl)-N-methylacetamide naphthalene-2-sulfonic acid [osanetant naphthalene-2-sulfonic acid Form 4]
- XRPD after drying at 40° C./75% RH [4]: retained; also recorded: stable; also recorded: Form 4
- XRPD after drying at 40° C. [4]: retained; also recorded: Form 4
